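Assay format: 96-well plates, 48-hour exposure. Definition used: TGI = concentration required for complete inhibition of growth.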 Where a SMILES comes first, the peptide text is derived from it. [ ]: non-standard residue; d: D form. pGlu = O=C1CC[CH](C(=O)O)N1; Thz = O=C(O)[CH]1CSCN1
Columns and labels:
Test in all cases: growth of human tumour cells (NCI), 48 h
[1] = test system: NCI-H460 lung
[2] = test system: IGROV1 ovarian
[3] = test system: HS 578T breast
[4] = test system: NCI/ADR-RES ovarian
[5] = test system: A549 NSCLC
[6] = test system: MDA-N
[7] = test system: A498 renal
[8] = test system: OVCAR-8 ovarian
[9] = test system: U251 CNS
[10] = test system: TK-10 renal
[11] = test system: M14 melanoma
[12] = test system: NCI-H226 lung

Row | Compound | TGI [1] [µM] | TGI [2] [µM] | TGI [3] [µM] | TGI [4] [µM] | TGI [5] [µM] | TGI [6] [µM] | TGI [7] [µM] | TGI [8] [µM] | TGI [9] [µM] | TGI [10] [µM] | TGI [11] [µM] | TGI [12] [µM]
1 | COC(=O)c1cc2c(c(C(=O)OC)c1)CCC2 | > 100 | > 100 | > 100 | > 100 | > 100 | > 100 | > 100 | > 100 | > 100 | > 100 | > 100 | –
2 | CCOC(=O)c1c(N)sc2c1CC(C)CC2 (configuration not stated) | > 100 | > 100 | > 100 | > 100 | > 100 | > 100 | – | > 100 | > 100 | > 100 | > 100 | 64
3 | Cc1nc2c(c(N3CCN(C)CC3)n1)Cc1ccccc1-2 | 47.4 | – | > 100 | > 100 | > 100 | > 100 | – | > 100 | > 100 | 88.1 | > 100 | > 100
4 | C=C(/C=C/C=C(\C)CCC=C(C)C)[C@@H]1CC[C@]2([C@H](CCCO)/C(=C(/C)C=O)CC[C@]2(C)O)[C@@H]1O | 26.5 | 81.1 | – | – | 38.2 | – | – | 46.5 | 28.5 | 66.2 | 48.2 | 56.2
5 | O=C(OC1=CCN(Br)C1=O)C1=C(O)C(=O)N(Br)C1 | > 100 | > 100 | > 100 | > 100 | > 100 | – | > 100 | > 100 | 58.1 | > 100 | > 100 | > 100
6 | COc1ccc(C2SCC(=O)N2c2ccc(-n3c(-c4ccccc4)nc4ccccc4c3=O)cc2)cc1 (configuration not stated) | > 100 | > 100 | – | > 100 | > 100 | – | > 100 | > 100 | > 100 | > 100 | > 100 | > 100
7 | O=C1CCC(C(=O)N2CSCC2C(=O)O)N1 (configuration not stated) ([pGlu]-[Thz]-OH; configuration not given here) | > 100 | > 100 | > 100 | > 100 | > 100 | > 100 | > 100 | > 100 | – | > 100 | > 100 | > 100
8 | O=C1c2ccccc2N(O)C1(c1ccccc1)C1CCCC=C1N1CCOCC1 (configuration not stated) | > 100 | > 100 | – | – | > 100 | – | – | > 100 | > 100 | > 100 | > 100 | > 100
9 | Cc1cn(C2CC(n3cc(Cn4ccc(=O)[nH]c4=O)nn3)C(CO)O2)c(=O)[nH]c1=O (configuration not stated) | – | – | > 100 | > 100 | > 100 | > 100 | > 100 | > 100 | > 100 | > 100 | > 100 | > 100
10 | CCCCCCN(CCCCCC)CCC(=O)c1ccc2cc(Br)c3ccccc3c2c1 | > 100 | > 100 | > 100 | > 100 | > 100 | – | > 100 | > 100 | > 100 | 65.2 | > 100 | > 100
11 | S=P1(Sc2ccccc2)Oc2ccc3ccccc3c2-c2c(ccc3ccccc23)O1 | > 100 | > 100 | – | > 100 | > 100 | – | > 100 | > 100 | > 100 | – | – | > 100
12 | COc1ccc(C2CC(c3c(O)ccc4ccccc34)=NN2)cc1OC (configuration not stated) | 8.24 | 20.1 | 7.43 | 9.77 | – | 22.8 | 43.6 | 17.8 | 11 | 14.4 | 17.3 | 14.6
13 | CC(=O)Nc1nc(C)c(S(=O)(=O)NC(=O)NC2NC(=O)NC2=O)s1 (configuration not stated) | > 100 | > 100 | > 100 | > 100 | > 100 | > 100 | > 100 | > 100 | > 100 | > 100 | > 100 | –
14 | CC(C)(C)c1ccc2c(c1)OP1(Oc3c(Cl)cc(Cl)c4cccnc34)(O2)Oc2ccc(C(C)(C)C)cc2O1 | 16.2 | 25.7 | – | 24.6 | 34.6 | – | 28.7 | 45.8 | 15.9 | – | – | 29.1
15 | Cc1ccc2nc3ccccc3c(C3C4C(=O)N(c5ccc(F)cc5)C(=O)C4ON3C(C(N)=O)c3ccccc3)c2c1 (configuration not stated) | > 100 | > 100 | > 100 | 90.2 | > 100 | – | > 100 | > 100 | > 100 | > 100 | > 100 | > 100
16 | Nc1nc(Cl)cc(NCC2(CCO)CCC2)n1 | > 100 | > 100 | > 100 | > 100 | > 100 | > 100 | – | > 100 | > 100 | > 100 | – | > 100
17 | CCOC(=O)C12CCC(=O)N1N(C)c1ncccc1N2 (configuration not stated) | > 100 | > 100 | – | > 100 | > 100 | > 100 | > 100 | > 100 | > 100 | > 100 | > 100 | > 100
18 | O=P1(c2ccccc2)C(c2ccccc2)CCC1c1ccccc1 (configuration not stated) | – | > 100 | > 100 | – | > 100 | > 100 | – | > 100 | – | > 100 | > 100 | > 100
19 | Cn1c(-c2ccco2)ccc1-c1ccc(C=O)o1 | > 100 | > 100 | – | > 100 | > 100 | > 100 | > 100 | > 100 | > 100 | > 100 | > 100 | > 100
20 | COc1cc(C2C=C(c3ccccc3)Oc3cc4c(cc32)OCO4)cc(OC)c1OC (configuration not stated) | > 100 | > 100 | > 100 | > 15.2 | > 100 | > 16.6 | > 100 | > 32.6 | > 100 | > 100 | > 100 | –
21 | NC1=Nc2ccccc2Sc2nncn21 | > 100 | > 100 | > 100 | > 100 | > 100 | – | > 100 | > 100 | > 100 | > 100 | > 100 | > 100

Source: PubChem BioAssay (NCI)
